What is called pIC50 is the negative decadic logarithm of the IC50, by convention in mol/L. As usually defined, the half-life is how long it takes for the measured level to halve.

Molecules are shown by their SMILES. pIC50: −log10 of the molar value. A value given as a limit tells only on which side of the number the result lay.

One data set has as its system Daudi cells. The data set can be described thus: Inhibition of human Daudi lymphoma cell proliferation (Cell-Titer Glo). It counts as cell-based. To be noted: Homo sapiens, 72 h, 3 days incubation, read-out: Anti-Proliferative Activity Against Daudi cells IC50. The procedure, abridged:
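Daudi cells in RPMI 1640 with 10% FBS were seeded and grown 24 h, then exposed for 3 days (37 °C, 5% CO2) to 10-point 3-fold serial dilutions at 0.25% final DMSO. Viability was read by CellTiter-Glo ATP luminescence, and IC50 was fitted from % inhibition against top/bottom controls.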

In the next data set the test system is WI-38 cells. The data set can be described thus: Inhibition of human WI-38 embryonic lung cell proliferation (Cell-Titer Glo). It is filed as cell-based. The note with it: Homo sapiens, 72 h, 3 days incubation, read-out: Anti-Proliferative Activity Against WI-38 cells IC50. As for the experimental part: Introduction of the experimental principle: After the RAD51 inhibitor to be tested was co-incubated with human embryonic lung cells for a period of time, the influence of the test compound on cell proliferation was measured by a method for counting cell proliferation based on the quantitative measurement of intracellular ATP content.
Materials and Cells: WI-38 cells were purchased from ATCC; fetal bovine serum, 1640 medium and penicillin-streptomycin were purchased from Gibco Inc. (U.S.), 96-well plates were purchased from Corning Inc. (U.S.), and Cell-Titer Glo reagent was purchased from Promega Corporation (U.S.).
Cell culture: WI-38 cells were cultured in an EMEM culture medium containing 10% fetal bovine serum and 1% penicillin-streptomycin at 37° C. in an atmosphere containing 5% CO2. Cells in logarithmic growth phase could be used for experiments.
Assay of cell proliferation and viability: Cell-Titer Glo reagent was used to measure the inhibitory activities of the compounds on the proliferation of WI-38 cell strain. The concentration of cells was adjusted, and the cells were seeded in a 96-well plate and cultured at 37° C. in an atmosphere containing 5% CO2 for 24 hours. The powder of the compound was dissolved in 100% DMSO to form a 10 mM solution. 10 μl of the solution of the compound was aspirated and transferred into a 96-well compound plate containing 20 μl of DMSO solution in each well for 3-fold dilution and was then formulated to 10 serial dilutions. Thereafter, 2 μl of the solution of the compound was aspirated from the corresponding well and added correspondingly into a 96-well intermediate compound dilution plate containing 78 μl of complete culture medium in each well. The resultant was mixed well, and the plate was centrifuged at 1000 rpm for 1 minute. Finally, 10 μl of the solution of the compound was aspirated from the corresponding well of the 96-well intermediate compound dilution plate, and transferred into the corresponding well of the cell culture plate containing 90 μl of complete culture medium. The final concentration of DMSO was 0.25%. After the addition of the compound, the cells were continued to be incubated for 3 days at 37° C. in an atmosphere containing 5% CO2. Cell-Titer Glo reagent was added to measure cell viability.
% Compound inhibition was calculated and IC50 of the compound was fitted;
% Compound inhibition=1−100%×(Signal−Bottom)/(Top−Bottom)

The nature of data set [1]: Metabolic stability in liver microsomes (human). It counts as in vitro ADME. To be noted: pH 7.4; Human being liver microsomes 0.5 mg/mL, compound 1 μM, NADPH 1 mM, 37° C. As for the experimental part: (§1) 1. Source of liver microsomes: human liver microsomes (Corning 452117), CD-1 mouse liver microsomes (XENOTECH M1000)
(§2) 1. Formulation of 100 mM phosphate buffer solution (PBS): 7.098 g of Na2HPO4 was weighed and ultrasonically dissolved in 500 mL of pure water to form Solution A. 3.400 g of KH2PO4 was weighed and ultrasonically dissolved in 250 mL of pure water to form Solution B. Solution A was placed in a stirrer and Solution B was slowly added until the pH value reached 7.4, thus formulating 100 mM PBS buffer solution.
(§3) The reaction system was formulated according to Table 3 below.
(§4) 3. The reaction system was placed in a water bath at 37° C. and pre-incubated for 10 minutes. 40 μL of 10 mM NADPH solution (NADPH was dissolved in 100 mM phosphate buffer solution) was added into the reaction system, and the final concentration of NADPH was 1 mM. 40 μL of Phosphate buffer solution was used instead of the NADPH solution as a negative control. The negative control was used to rule out the influence caused by the chemical stability of the compounds per se.
(§5) 4. The reaction system was added with 4 μL of 100 μM the compound of the present disclosure and Verapamil (the positive control compound) (DMSO as the vehicle), so that the reaction was initiated. The final concentration of the compound was 1 μM.
(§6) 5. At 0.5, 15, 30, 45 and 60 minutes, after being well mixed in a vortex oscillator, 50 μL of the incubated samples were taken out respectively, and the reaction was terminated with ice acetonitrile (4-fold) containing an internal standard. The samples were centrifuged at 3220 g for 45 minutes. After the centrifugation, 90 μL of the supernatants were transferred to a sample plate and mixed well with 90 μL of ultrapure water for LC-MS/MS analysis.
(§7) All data were calculated by Microsoft Excel software. Peak areas were determined from the extracted ion chromatograms. The in-vitro half-life (t1/2) of the parent drug was determined by the linear fitting of the natural logarithm of the elimination percentage of the parent drug versus time.
(§8) The in-vitro half-life (t1/2) was calculated from the slope: […]
Background: Liver microsomes are vesicles of endoplasmic reticulum, rich in cytochrome P450 enzymes.

The nature of data set [2]: Metabolic stability in liver microsomes (CD-1 mouse). The note with it: pH 7.4; CD-1 mouse liver microsomes 0.5 mg/mL, compound 1 μM, NADPH 1 mM, 37° C. It counts as in vitro ADME. As for the experimental part: as §1, §2, §3, §4, §5, §6, §7, §8
A short description of data set [3]: Pharmacokinetic experiment in mouse. It counts as in vivo. The note with it: female CB17-SCID mice, oral dose 25 mg/kg. From the text: CB17-SCID mice were purchased from Beijing Vital River Laboratory Animal Technology Co., Ltd.
DMSO, HP-β-CD (hydroxypropyl-β-cyclodextrin), PEG400 (polyethylene glycol 400), and Vitamin E TPGS (D-α-tocopherol polyethylene glycol 1000 succinate) were purchased from Sigma.
Six female CB17-SCID mice (20 g to 30 g, aged 4 to 6 weeks) were divided randomly into two groups, with 3 mice in each group. In Group 1, the compound in a vehicle of an aqueous solution containing 5% dimethyl sulfoxide and 95% hydroxypropyl-β-cyclodextrin (10%, w/v) was administered by intravenous injection via tail vein. In Group 2, a corresponding dose of the compound in a vehicle of an aqueous solution containing 30% polyethylene glycol 400 and 70% D-α-tocopherol polyethylene glycol 1000 succinate (10%, w/v) was orally administered. The animals were fed normally with food and water before experiment. The mice in each group underwent intravenous blood collection before administration and at 0.083 h (intravenous injection group only), 0.25 h, 0.5 h, 1 h, 2 h, 4 h, 6 h, 8 h, and 24 h after administration. The collected whole blood samples were placed in K2EDTA anticoagulation tubes and centrifuged for 5 min (4000 rpm, 4° C.) to collect the plasma for testing.
10 μL of the mouse plasma sample was taken, and 150 μL of acetonitrile solvent (containing the internal standard compound) was added to precipitate protein. After the resultant was vortexed for 0.5 min and centrifuged (4700 rpm, 4° C.) for 15 min, the supernatant was subjected to 2-fold dilution with water containing 0.05% (v/v) FA and was then subjected to quantitative measurement in LC-MS/MS system (AB Sciex Triple Quad 6500+). A calibration standard curve was prepared in CB17-SCID mouse plasma along with quality control samples to determine the plasma concentration. As for a 10× diluted sample, 2 μL of sample was taken and 18 μL of blank plasma was added. After being vortexed for 0.5 min, the mixture was added with 300 μL of acetonitrile solvent (containing the internal standard compound) so as to precipitate protein. The rest of the processing steps were the same as those for the undiluted samples.

For `CC(C)OC(=O)NC1CCC(c2ncc(-c3ccc(Nc4cnn(C5COC5)c4)cc3S(=O)(=O)C3CC3)s2)CC1` (stereo not drawn) [Example 86, isopropyl trans-N-[4-[5-[2-cyclopropylsulfonyl]-4-[[1-(oxetan-3-yl)pyrazol-4-yl]amino]phenyl]thiazol-2-yl]cyclohexyl]carbamate], the pIC50 with Daudi cells was 8.52; in the data set on WI-38 cells, below 4.60. In addition, the half-life at 1 μM was 107 min in data set [1] and 84 min in data set [2].
With `CC(C)OC(=O)NC1CCC(c2ncc(-c3ccc(Nc4cnn(CCO)c4)cc3S(=O)(=O)C3CC3)s2)CC1` (stereo not drawn) [Example 84, isopropyl trans-N-[4-[5-[2-cyclopropylsulfonyl]-4-[[1-(2-(hydroxyethyl)pyrazol-4-yl]amino]phenyl]thiazol-2-yl]cyclohexyl]carbamate], the figures for the pIC50 in the data set with Daudi cells and in the data set on WI-38 cells were 8.15 and below 4.60, respectively. In addition, the values for the half-life at 1 μM in data set [1] and in data set [2] were 67 min and 112 min, respectively.
The like results for `CC(C)OC(=O)N[C@H]1CC[C@H](c2ncc(-c3ccc(Nc4cc(CO)[nH]n4)cc3S(=O)(=O)C3CC3)s2)CC1` [Example 72, isopropyl trans-(4-(5-(2-(cyclopropylsulfonyl)-4-((5-(hydroxymethyl)-1H-pyrazol-3-yl)amino)phenyl)thiazol-2-yl)cyclohexyl)carbamate] were, in that order, 8.40, 4.70, 422 min and 271 min.
Consider `CC(C)OC(=O)NC1CCC(c2ncc(-c3ccc(Nc4cnn(CCF)c4)cc3S(=O)(=O)C3CC3)s2)CC1` (stereo not drawn) [Example 85, isopropyl trans-N-[4-[5-[2-cyclopropylsulfonyl]-4-[[1-(2-fluoroethyl)pyrazol-4-yl]amino]phenyl]thiazol-2-yl]cyclohexyl]carbamate], for which the results for the pIC50 with Daudi cells and with WI-38 cells were 9.22 and 4.77, respectively. Moreover, the figures for the half-life at 1 μM in data set [1] and in data set [2] were 82 min and 51 min, respectively.
With `CC(C)OC(=O)NC1CCC(c2ncc(-c3ccc(Nc4cnn(C)c4)cc3S(=O)(=O)C3CC3)s2)CC1` (stereo not drawn) [Example 70, isopropyl trans-N-[4-[5-[2-cyclopropylsulfonyl]-4-[(1-methylpyrazol-4-yl)amino]phenyl]thiazol-2-yl]cyclohexyl]carbamate], the pIC50 in the data set on Daudi cells was 8.10. Also, in the data set on WI-38 cells, the pIC50 is 4.68. Moreover, in data set [3], the “Drug Exposure” value stood at 137.892 µg·h/mL, the “Max. Drug Conc.” value was 32840 ng/mL and the “Peak Time of Drug Conc.” value was 0.75 h. In addition, the half-life in data set [3] (mouse, plasma, read-out: Drug Elimination Half-life (converted)) was 300 min.
